Results published in patent publication US7622470B2, “Treatment of T-cell lymphoma using 10-propargyl-10-deazaaminopterin” (Sloan-Kettering Institute for Cancer Research, priority 2004, dated 2009).
“Also recorded” adds a separate entry of the source. Read-outs that look alike come from different tables or passages of the source.

What was measured:
[1] = tested on: T cell lymphoma; assay type: in vivo
Experimental: Each of these patients was also treated with folic acid (1 mg/m^2 daily starting 1 week prior to treatment with PDX) and B12 (1 mg/m^2 monthly) supplementation.

[2] = tested on: murine L1210 cell line; conditions: cited from earlier work
[3] = target: T1, dihydrofolate reductase (DHFR) (Mus musculus, UniProt P00375); conditions: relative to L1210 growth inhibition; cited from earlier work
T1 sequence (P00375 1-187): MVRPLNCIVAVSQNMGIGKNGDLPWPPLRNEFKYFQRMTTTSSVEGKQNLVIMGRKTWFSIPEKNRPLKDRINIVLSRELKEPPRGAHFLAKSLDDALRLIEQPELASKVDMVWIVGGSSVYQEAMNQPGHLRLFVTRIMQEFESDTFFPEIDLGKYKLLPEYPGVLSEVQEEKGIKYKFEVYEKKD

[4] = tested on: human tumors (mammary, lung) xenograft; conditions: cited from earlier work
[5] = tested on: mesothelioma; conditions: cited from earlier work
[6] = tested on: T cell lymphoma; assay: Prior treatment history of the study patients; assay type: in vivo, human; conditions: Patient 2: Lymphoblastic Lymphoma, Precursor T-cell; MTX May 2002 through February 2004
[7] = Patient 2: Lymphoblastic Lymphoma, Precursor T-cell, Stage IV, PDX 30 mg/m^2 x 3 weeks every 4 weeks, 3 cycles
[8] = Patient 3: HTLV Associated T-cell Lymphoma, PDX 30 mg/m^2 weekly x 3 every 4 weeks x 2 cycles
[9] = Patient 4: Panniculitic T-cell Lymphoma, PDX 30 mg/m^2 weekly x 4

Row | SMILES | Overall response of the patients with T-cell lymphoma treated with PDX ([1]; 4 patients, PET imaging) | Toxicities ([1]; Patient 1: Peripheral T-cell Lymphoma, Stage IV, PDX 135 mg/m^2 x 1 dose) | Response ([1]; Patient 1: Peripheral T-cell Lymphoma, Stage IV, PDX 135 mg/m^2 x 1 dose, folic acid and B12 supplementation) | Response [1, 7] | Toxicities [1, 7] | Response [1, 8] | Toxicities [1, 8] | Response [1, 9] | Toxicities [1, 9] | Inhibition of growth [2] | Inhibition of the enzyme [3] | Efficacy against human tumors compared with reference antifolates ([4]; highly purified PDX compositions) | Tumor growth after cessation of therapy ([4]; several weeks after the cessation of therapy) | Efficacy against mesothelioma [5] | Response to prior treatment [6]
1 | C#CCC(Cc1cnc2nc(N)nc(N)c2n1)c1ccc(C(=O)N[C@@H](CCC(=O)O)C(=O)O)cc1 (stereo partly drawn) [PDX, 10-Propargyl-10-deazaaminopterin] | all four have met criteria for complete remission | Grade 3 stomatitis; neutropenia grade 3; sepsis | Essentially complete remission by PET scan | Complete remission by PET and CT scans | None | Complete remission | None | Clinical complete remission by PET | None | inhibitor of growth | to a lesser extent | far superior to methotrexate; also recorded: superior to edatrexate | no evidence of tumor growth | effective against mesothelioma | –
2 | CN(Cc1cnc2nc(N)nc(N)c2n1)c1ccc(C(=O)N[C@@H](CCC(=O)O)C(=O)O)cc1 [methotrexate] | – | – | – | – | – | – | – | – | – | – | – | – | – | – | essentially methotrexate resistant disease
